The subject of data set [1] is CD4+IL-17+ and CD4+IFNg+ T cells. Nature of the data set: Frequency of CD4+IL-17+ and CD4+IFNg+ T cells by FACS. It counts as in vivo, mouse. Here is the method: In addition, cells were stimulated in culture medium containing 100 μg/ml MOG35-55 for 2 days or with PMA (50 ng/ml) (Sigma-Aldrich) and ionomycin ([…]) (Calbiochem, San Diego, Calif., USA) for 4 hours, Golgistop (BD Biosciences) was added to the culture during the last 4 hours. After staining of surface markers, cells were fixed and permeabilized using Cytofix/Cytoperm and Perm/Wash buffer from BD Biosciences according to the manufacturer's instructions. All antibodies to cytokines (IFN-gamma, IL-17, IL-10) including the corresponding isotype controls were obtained from BD Biosciences. Cells were incubated (1:100) at 25° C. for 20 min and washed twice in Perm/Wash before analysis. Data were acquired on a FACSCalibur (BD Biosciences) and analyzed with FlowJo software (Tree Star, Ashland, Oreg., USA).
To confirm the suppressive effects of AHR activation on the generation of T cells secreting IFNg and IL17, IFNg^+ and IL17^+ CD4^+ T cells were quantified by FACS in the draining lymph nodes ten days after footpad immunization and intraperitoneal administration of ITE ([…]).

The target of a further data set is T1, AHR (Homo sapiens, UniProt P35869).
T1 sequence (P35869 11-848): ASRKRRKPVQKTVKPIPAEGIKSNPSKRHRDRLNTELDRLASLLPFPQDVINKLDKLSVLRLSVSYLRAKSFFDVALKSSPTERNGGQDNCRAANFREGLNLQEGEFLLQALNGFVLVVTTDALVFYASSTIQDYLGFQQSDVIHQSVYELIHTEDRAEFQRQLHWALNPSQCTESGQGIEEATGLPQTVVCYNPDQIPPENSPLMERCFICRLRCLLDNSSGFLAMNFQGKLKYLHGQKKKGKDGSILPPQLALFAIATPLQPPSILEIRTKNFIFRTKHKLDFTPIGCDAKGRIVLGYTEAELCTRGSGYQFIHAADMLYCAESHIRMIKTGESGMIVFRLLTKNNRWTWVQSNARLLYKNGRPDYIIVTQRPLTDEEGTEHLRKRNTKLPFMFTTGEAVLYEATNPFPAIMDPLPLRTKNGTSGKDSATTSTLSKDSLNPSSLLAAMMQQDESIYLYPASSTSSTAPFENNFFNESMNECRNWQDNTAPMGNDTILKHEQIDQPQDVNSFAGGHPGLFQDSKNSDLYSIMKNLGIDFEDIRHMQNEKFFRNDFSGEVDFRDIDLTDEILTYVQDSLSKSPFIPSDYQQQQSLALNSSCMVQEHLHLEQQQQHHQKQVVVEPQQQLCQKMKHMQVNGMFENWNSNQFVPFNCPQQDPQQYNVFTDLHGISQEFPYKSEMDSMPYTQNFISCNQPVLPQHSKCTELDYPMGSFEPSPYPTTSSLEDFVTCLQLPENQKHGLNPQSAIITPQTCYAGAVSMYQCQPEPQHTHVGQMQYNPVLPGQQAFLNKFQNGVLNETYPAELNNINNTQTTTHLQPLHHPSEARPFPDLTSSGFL
The settings on record: cited from earlier work.

A further data set deals with CD4+Foxp3+ Treg. Nature of the data set: CD4+Foxp3+ Treg quantified by FACS in treated mice. It counts as in vivo, mouse. On the set-up: number of CD4+FoxP3+ Treg / number of CD4+Foxp3+ T cells / levels of LAP+ regulatory T cells / number of CD4+FoxP3:GFP+ Treg in blood and spleen: dose or concentration left out as unconfirmed.
A further data set relates to CD4+Foxp3:GFP+ Treg. Nature of the data set: Treg suppressive activity assay. The class given is cell-based, mouse. Here is the method: Cells were cultured in serum-free X-VIVO 20™ media (BioWhittaker, Walkersville, Md., USA) for 72 hours. During the last 16 hours, cells were pulsed with 1 μCi of [^3H]thymidine (PerkinElmer, Waltham, Mass., USA) followed by harvesting on glass fiber filters and analysis of incorporated [^3H]thymidine in a beta-counter (1450 Microbeta, Trilux, PerkinElmer). Alternatively, culture supernatants were collected […] activation and the cytokine concentration was determined by ELISA using antibodies for IFN-γ, IL-17, IL-4, IL-10 from BD Biosciences and antibodies to TGF-β from R&D Systems. For suppression assays, MACS purified CD4^+CD25^− T cells from naïve C57BL/6 mice (1-5×10^4 cells/well) were stimulated with antibodies to CD3 and C57BL/6 irradiated spleen cells (0.3-1.5×10^4 cells/well) for 3 days in the presence of different ratios of CD4^+ GFP^+ retrovirus-transduced T cells.
To investigate the active suppression of MOG35-55-specific Teff by Treg, Foxp3^gpf knock in mice were immunized with MOG35-55/CFA, treated daily with intreaperitoneal ITE ([…]) and the recall response to MOG35-55 and a mitogenic antibody to CD3 antibody was studied on FACS-sorted CD4^+ T cells and CD4^+ FoxP3:GFP− Teff. […] This suppressed response to MOG35-55 was lost upon removal of the CD4^+FoxP3:GFP^+ Treg (FIG. 26). To further analyze the MOG35-55-specific suppressive activity of the CD4^+FoxP3:GFP^+ Treg, they were cocultured at different ratios and assayed for the suppression of MOG35-55 or anti-CD3-triggered proliferation of CD4^+FoxP3:GFP− Teff form 2D2 mice, which harbor a TCR specific for MOG35-55.

The next data set concerns mutant AHR. The settings on record: Okey et al. 1989; cited from earlier work.
The subject of the next data set is CD4+CD25- T cells. The data set can be described thus: CD4+CD25- T cells activated with antibodies to CD3 in the presence of TCDD. It counts as cell-based, mouse. The settings on record: incubation with TCDD. An excerpt:
To rule out any direct cytotoxic or pro-apoptotic effect of TCDD on effector T cells, purified mouse CD4^+CD25^− T cells were activated in vitro with antibodies to CD3 in the presence of TCDD.

Where [2] appears, read: ITE 200 mg/mice intraperitoneal, draining lymph nodes ten days after footpad immunization.
Setting [3] is: ITE ip daily, MOG35-55/CFA, spleens.
The mark [4] stands for this setting: ITE orally daily, MOG35-55/CFA, spleens.
[5] abbreviates: draining lymph nodes of TCDD-treated mice.

These results are taken from US11253589B2, “Modulation of the immune response” (priority 2007, dated 2022).

“Also recorded” adds a separate entry of the source.

With `COC(=O)c1csc(C(=O)c2c[nH]c3ccccc23)n1` [ITE, 2-(1′H-indole-3′-carbonyl)-thiazole-4-carboxylic acid methyl ester], in data set [1] (setting [2]), the “frequency of CD4+IFNg+ T cells” value was “decrease in the frequency” and the “frequency of CD4+IL17+ T cells” value is on record as “decrease in the frequency”. In addition, at AHR, the AHR affinity entry is “high affinity AHR ligands”. Further, the “number of CD4+FoxP3:GFP+ Treg in blood and spleen” value in the data set on CD4+Foxp3+ Treg (Foxp3gfp knock in mice, ITE ip daily, ten days after MOG35-55/CFA) is recorded as “significant increase in the number”. For the same compound, in the data set with CD4+Foxp3+ Treg (setting [3]), the “levels of LAP+ regulatory T cells” value is reported as “did lead to significant alterations” and the “number of CD4+FoxP3+ Treg” value was “significant increase in the number”. For the same compound, in the data set with CD4+Foxp3+ Treg (setting [4]), the “levels of LAP+ regulatory T cells” value is reported as “did lead to significant alterations” and the “number of CD4+FoxP3+ Treg” value is “significant increase in the number”. The “MOG35-55-specific suppressive activity of CD4+ FoxP3:GFP+ Treg” value in the data set on CD4+Foxp3:GFP+ Treg (Treg from ITE-treated mice, 2D2 Teff as responders) was “increased MOG35-55-specific suppressive activity”.
Turning to `Clc1cc2c(cc1Cl)Oc1cc(Cl)c(Cl)cc1O2` [TCDD, 2,3,7,8 tetrachlorodibenzo-p-dioxin], in data set [1] (setting [5]), the “frequency of CD4+IFNg+ T cells” value was “decrease in the frequency” and the “frequency of CD4+IL-17 T cells” value is on record as “decrease in the frequency”. In addition, the “IL-17+CD4+ T cells in the draining lymph nodes” value in data set [1] (natural Treg depleted with antibodies to CD25 prior to TCDD treatment, day 18) is reported as “significant reduction; also recorded: significant decrease in the frequency”. The “reduction in affinity of mutant AHR (d allele) for TCDD” value in the data set on mutant AHR is listed as 10 fold. For the same compound, the AHR affinity result at AHR was “high affinity AHR ligand”. Also, the “number of CD4+FoxP3+ Treg” value in the data set on CD4+Foxp3+ Treg (TCDD ip, draining lymph nodes, without immunization) was “small increase”. The “frequency of CD4+Foxp3+ T cells” value in the data set on CD4+Foxp3+ Treg (TCDD ip, spleen, 21 days after EAE induction) is given as “significant increase in the frequency”. Moreover, the “rebound in Treg numbers” value with CD4+Foxp3+ Treg (natural Treg depleted with antibodies to CD25 prior to TCDD treatment, day 7) was “faster rebound in their Treg numbers”. For the same compound, the “number of CD4+Foxp3+ T cells” value in the data set with CD4+Foxp3+ Treg (single TCDD ip followed by MOG35-55/CFA immunization, draining lymph nodes 10 days later) is on record as “significant increase”. In the data set with CD4+CD25- T cells (antibodies to CD3), the “T cell apoptosis (annexin-FITC staining)” value was “did not increase T cell apoptosis”. Further, in the data set with CD4+CD25- T cells (antibodies to CD3, 72 hours), the proliferative response entry is “did not decrease the proliferative response”. Besides, in the data set with CD4+Foxp3:GFP+ Treg (Treg expanded in vivo by TCDD administration and MOG35-55 immunization), the “MOG35-55-specific suppressive activity of CD4+Foxp3:GFP+ T cells” value is given as “increased MOG35-55-specific suppressive activity”. Further, the “proliferation and suppressive activity of CD4+Foxp3:GFP+ Treg purified from naïve mice” value with CD4+Foxp3:GFP+ Treg (stimulation with antibodies to CD3 and CD28 and TCDD) was “did not proliferate and did not show increased suppressive activity”.
